In this test the test system is CEM cells HIV-1 protection, formazan growth assay. Briefly: NCI AIDS Antiviral Assay. Particulars: for IC50: measured here: growth of uninfected CEM cells. In short, it runs like this:
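Screen of anti-HIV-1 activity in human CEM cells using a formazan-based growth measurement at five drug concentrations. Hits with 50% or greater protection were repeated, and confirmation required reproducible complete protection.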

SMILES strings stand for the structures. Where “and” joins values, the source holds several entries; their conditions need not be identical. Identical values can stand only once. Calls of active or inactive are those of the source.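 How the source made its calls: active means compounds giving half or more protection of infected cells from virus-caused growth loss, again on retest; inactive means the rest.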 Where a SMILES comes first, the peptide text is derived from it. [ ]: non-standard residue; d: D form. The star is where a group is joined. Phe(2-OMe) = COc1ccccc1C[CH](N)C(=O)O; Cbz = O=C(OCc1ccccc1)*; OBn = c1ccc(CO*)cc1 Bounds are passed on as bounds.

A word on the EC50: it is the concentration giving half of the maximal effect. Usually IC50 stands for the concentration that gives 50% inhibition. Higher therefore signals weaker potency in that assay.

With `O=C1c2cc3c(cc2CC12Cc1cc4c(cc1C2=O)CCC4)CCC3`, the EC50 was 158 µM and the IC50 was above 200 µM.
With `C#CCOCn1ccc(=O)[nH]c1=O`, the EC50 is above 200 µM and the IC50 is above 200 µM.
As for `CN(C)c1cccc2c(S(=O)O)cccc12`, the EC50 is above 200 µM and the IC50 is above 200 µM.
Turning to `COc1ccc2ccc3c(c2c1)CN1CCc2cc(OC)c(OC)cc2C1C3` (stereo not given), the result was inactive.
For `COc1ccccc1C1CC(=O)CC(c2ccccc2OC)C12C(=O)NC(=S)NC2=O` (stereo not given), the EC50 was above 200 µM and the 50% inhibitory concentration (IC50) was found to be 46.8 µM.
For `Oc1nc2nc[nH]n2c1N=Nc1ccccc1`, the EC50 is above 200 µM and the IC50 was above 200 µM.
Regarding `CCC/C(Cl)=N\OC(=O)Nc1ccc(F)cc1`, the EC50 was above 20 µM and the IC50 was 2.82 µM.
For `CC1(C)OC(=O)c2cc(C(=CCCBr)c3cc(Cl)c4c(c3)C(=O)OC(C)(C)O4)cc(Cl)c2O1`, in that order: above 100 µM and 41.7 µM.
For the compound `COc1ccc(/C=C/C(=O)Oc2ccccc2OC)cc1`, the EC50 was above 200 µM and the IC50 came to 0.398 µM.
Take `CCOC(=O)C1=C(C#N)S(=O)(=O)c2c(oc(C)c2C)N1`: the EC50 is above 200 µM and the IC50 was above 200 µM.
For the compound `COc1ccc(C2Oc3c(cc(O)c(OC)c3C)[C@@H]2C)cc1OC` (stereo not given in full), the EC50 was above 79.4 µM and the IC50 turned out to be 47.9 µM.
For `CNC(=O)NCCCC(NC(C)=O)C(=O)NCc1ccccc1` (stereo not given), in that order: above 112 µM and above 112 µM.
For `NC(C(=O)O)C1=CCCC1` (stereo not given), in that order: above 200 µM and above 200 µM.
For `CCOC(=O)CC1COc2ccc3c(c21)OCO3` (stereo not given), the EC50 was above 525 µM and the IC50 was found to be 339 µM.
For the compound `CCCCCCCCC(O)C(O)CCCCCCCC(=O)O` (stereo not given), the EC50 was above 200 µM and the IC50 came out at 53.7 µM.
In the case of `Cc1cc(C)c([O-])c(-[n+]2c(-c3ccccc3)cc(-c3ccccc3)cc2-c2ccccc2)c1`, the EC50 was above 17 µM and the IC50 worked out at 2.88 µM.
Consider `CSc1nc(NC2OCC(O)C(O)C2O)cc(=O)n1C` (stereo not given), for which the result was inactive.
As to `c1ccc2c(c1)Nc1ccccc1[P+]21c2ccccc2Nc2ccccc21`, the EC50 was above 2 µM and the IC50 is 0.288 µM.
The matching figures for `N#C/C(=C\NC(=S)c1ccncc1)c1nc2ccccc2s1`: above 200 µM and 145 µM.
In the case of `CCOC(=O)c1nc2cc(N3CCOCC3)c(F)cc2[nH]c1=O`, the EC50 was above 200 µM and the IC50 came to 141 µM.
Consider `O=[N+]([O-])c1cc(Cl)cc2cc(Br)cnc12`, for which the EC50 was above 200 µM and the half-inhibitory concentration (IC50) is above 200 µM.
In turn, `O=[N+]([O-])c1cc([As](=O)(O)O)ccc1S(=O)(=O)O` displayed an EC50 above 200 µM and an IC50 above 200 µM.
As for `CCCCCCCCCCCCCCCC=C(c1cc(Cl)c(O)c(C(=O)O)c1)c1cc(Cl)c(O)c(C(=O)O)c1`, the EC50 is 20.9 µM and the 50% inhibitory concentration (IC50) stood at 34.7 µM.
For `COc1ccc(/C=C/C(=O)Oc2cc(O)cc(O)c2)cc1`, in that order: above 200 µM and 4.57 µM.
`CCC1C(c2cc(OC)c(OC)c(OC)c2)c2cc3c(cc2OC1N1CCCC1)OCO3` (stereo not given): the EC50 is above 200 µM and the IC50 amounted to 1.12 µM.
Regarding `C=CC1(c2ccc(Cl)c(Cl)c2)OCCO1`, the EC50 was above 200 µM and the IC50 worked out at 166 µM.
For `COc1cccc(-c2nccc3c(OCc4ccccc4)c(OC)c(OC)cc23)c1`, the outcome was inactive.
In the case of `c1ccc(N2CC3CSc4c(ccc5ccccc45)C3=N2)cc1` (stereo not given), the EC50 is above 200 µM and the IC50 was 162 µM.
On to `O=C(c1ccccc1)N1CCc2c([nH]c3ccccc23)C1`, for which the outcome was inactive.
For the compound `N#CCCC(CCC#N)(CCC#N)NO`, the EC50 was above 200 µM and the IC50 is above 200 µM.
`CC[n+]1c(/C=C/c2ccc(N(CCCl)CCCl)cc2)ccc2cc(NC(=O)/C=C/c3ccccc3)ccc21`: the outcome was inactive.
Turning to `COc1ccc(C2C(C#N)=C(S)N(C3OC(COC(C)=O)C(OC(C)=O)C(OC(C)=O)C3OC(C)=O)C(C)=C2C(C)=O)cc1` (stereo not given), the EC50 was above 200 µM and the IC50 turned out to be 53.7 µM.
For `COc1c2c3c(ccnc3c3ccccc13)C(=O)N2C`, in that order: above 200 µM and 9.55 µM.
For `CSC(=S)OC1C(CO[Si](C)(C)C(C)(C)C)OC2OC(C)(C)OC21` (stereo not given), the result was inactive.
`N#CC(/C(=N/NC(=O)C(=O)NN)C(=O)Nc1nc([N+](=O)[O-])cs1)c1ccc(Cl)cc1` (stereo not given): the EC50 is 95.5 µM and the half-maximal inhibitory concentration (IC50) is 209 µM.
The matching figures for `CCN(CC)CCOc1ccc(/C(=C(\Cl)c2ccccc2)c2ccccc2)cc1`: above 200 µM and 5.5 µM.
Consider `O=S1(=O)CC(N2CCOCC2)C2=C(O1)c1sc(-c3ccccc3)nc1CC2` (stereo not given), for which the result was inactive.
In the case of `N/N=C(/Cc1ccccc1)NNC(N)=S`, the EC50 was above 427 µM and the IC50 was 263 µM.
For `CCc1n[nH]c(=O)n1N1C(=O)C2CC=CCC2C1=O` (stereo not given), in that order: above 200 µM and above 200 µM.
Turning to `CC(C)c1ccc(C(c2ccc(OCC(=O)O)cc2)c2ccc(C(C)C)cc(=O)c2O)c(O)c(=O)c1`, the result was inactive.
`COC(=O)C(Cc1ccccc1OC)NC(=O)C(CC(=O)OCc1ccccc1)NC(=O)OCc1ccccc1` (stereo not given) (Cbz-Asp(OBn)-[Phe(2-OMe)]-OMe; configuration not given here): the EC50 is above 200 µM and the IC50 came to 30.2 µM.
`CC(C)(C)[Si](OC[C@H]1OC(=O)[C@@H]2CN(Cc3ccccc3)C[C@H]12)(c1ccccc1)c1ccccc1`: the EC50 is above 7.76 µM and the IC50 was above 7.76 µM.
For `CC1(C)C2CCC1(C)C(N=C(N)CSS(=O)(=O)O)C2` (stereo not given), the EC50 was above 200 µM; the IC50 is 49 µM and 30.9 µM.
For the compound `O=[N+]([O-])c1ccc2nc(-c3ccccn3)c(-c3ccccn3)nc2c1`, the EC50 is above 200 µM and the IC50 is above 200 µM.
With `CCC[CH2][Sn]([CH2]CCC)([O]C(=O)c1cccnc1SC)[O]C(=O)c1cccnc1SC`, the EC50 is above 12.6 µM and the IC50 was found to be 9.12 µM.
`O=[N+]([O-])C(=C(Nc1ccccc1)Nc1ccccc1)/C(Cl)=C(\Cl)Br`: the EC50 was above 200 µM and the IC50 stood at 7.41 µM.
`[Cl-].[Co+2].c1cnc2c(c1)ccc1cccnc12.c1cnc2c(c1)ccc1cccnc12.c1cnc2c(c1)ccc1cccnc12`: the EC50 was above 100 µM and the IC50 turned out to be 0.977 µM.
Consider `CCN(CC)CCC1CCCCN1CC(=O)N1c2cc(Cl)ccc2NC(=O)CC1C` (stereo not given), for which the EC50 was above 200 µM and the half-maximal inhibitory concentration (IC50) was above 200 µM.
With `CC#N.CC#N.COC(=O)[C@H]1COC(=O)[N-]1.COC(=O)[C@H]1COC(=O)[N-]1.COC(=O)[C@H]1COC(=O)[N-]1.COC(=O)[C@H]1COC(=O)[N-]1.[Rh+2].[Rh+2]`, the EC50 was above 200 µM and the 50% inhibitory concentration (IC50) was above 200 µM.
For the compound `CC(C)Cn1cnc2c(Cl)nc3ccccc3c21`, the EC50 is above 200 µM and the IC50 was 41.7 µM.
For `O=C(O)CCC(=O)NCCNC(=O)CCC(=O)O`, in that order: above 955 µM and above 955 µM.
For `CC(C)N(C(=O)c1ccc([N+](=O)[O-])cc1)C(C)C`, in that order: above 200 µM and above 200 µM.
Take `O=c1c(O)c(-c2ccc(O)c(O)c2)oc2cc(O)cc(O)c12`: the result was inactive.
For the compound `CC(=O)O[C@@]12[C@@H]3O[C@@]4(O)C[C@]5(C)[C@H]6C[C@@](C(C)C)(O[C@H]5c5ccoc5)O[C@H]1[C@]6(C4)O[C@]2(O)C(C)=CC3(C)C`, the EC50 was above 100 µM and the half-inhibitory concentration (IC50) stood at 52.5 µM.
The matching figures for `COc1ccc(N2C(=O)CC(c3c[nH]c4ncccc34)C2=O)cc1` (stereo not given): above 200 µM and 42.7 µM.
For `O=c1c2ccccc2n2nnc3cccc1c32`, the EC50 is above 23.4 µM and the IC50 is above 23.4 µM.
Take `COC(Cc1ccccc1)NC(C)=O` (stereo not given): the EC50 is above 200 µM and the 50% inhibitory concentration (IC50) was determined as 186 µM.
Regarding `COC1/C=C\OC2(C)Oc3c(C)c(O)c4c(O)c(c(/C=N\N5CCCC5)c(O)c4c3C2=O)NC(=O)/C(C)=C\C=C/C(C)C(O)C(C)C(O)C(C)C(OC(C)=O)C1C` (stereo not given), the result was inactive.
In the case of `CC(Oc1ccc2c(-c3ccccc3)cc(=O)oc2c1)C(=O)O` (stereo not given), the outcome was inactive.
For `Cn1cc(N)cc1C(=O)Nc1cc(C(=O)Nc2ccc3cc(S(=O)(=O)O)cc(S(=O)(=O)O)c3c2)n(C)n1`, the EC50 is 18.2 µM and the half-inhibitory concentration (IC50) is above 100 µM.
For the compound `CNNCc1ccc(C(=O)NC(C)C)cc1`, the EC50 is above 977 µM and the IC50 amounted to 229 µM.
As for `CCN=C1C=C/C(=C(/c2ccc(NCC)c(C)c2)c2cc(O)c(S(=O)(=O)O)cc2S(=O)(=O)O)C=C1C`, the result was inactive.
For `COc1cccc2ccc3c(c12)C(=O)OC31CCc2c(C)cccc21` (stereo not given), the outcome was inactive.
On to `O=C(O)CSCCOCCSCC(=O)O`, for which the EC50 is above 708 µM and the IC50 was above 708 µM.
For the compound `Cc1nn(C(=O)CC(=O)Nc2ccccc2Cl)c(C)c1N=Nc1ccccc1F`, the result was inactive.
For the compound `CCc1cn(C2CC(CO)C(CO)S2)c(=O)[nH]c1=O` (stereo not given), the EC50 is above 200 µM and the IC50 was above 200 µM.
For `CC1(C)N(OC2CCCCO2)C(c2ccccc2)C(c2ccccc2)=[N+]1[O-]` (stereo not given), the EC50 is above 200 µM and the IC50 turned out to be 35.5 µM.
For `O=C1Sc2ccccc2C(=O)N2CS(=O)CC12` (stereo not given), in that order: above 100 µM and above 100 µM.
Consider `O=c1[nH]cnc2c1nnn2CCCn1nnc2c(=O)[nH]cnc21`, for which the EC50 was above 200 µM and the IC50 is above 200 µM.
On to `COc1ccc(/C=C2\C=Cc3ccccc32)cc1OC`, for which the EC50 is above 200 µM and the IC50 came to 33.9 µM.
For `CCSC1=N/C(=C\c2ccco2)C(Cl)=N1`, in that order: above 100 µM and above 100 µM.
As for `N/N=c1\c2ccccc2c2ccc3c4ccccc4/c(=N\N)c3c12`, the EC50 was above 11.5 µM and the IC50 was above 11.5 µM.
